From patent publication US8952024B2, “Herbicidal pyrimidone derivatives” (E I du Pont de Nemours and Company, priority 2009, dated 2015)

Experiments:
Experiment in all cases: Test B pre-/postemergence plant response
Assay type in all cases: in vivo
[1] = system: Italian ryegrass (Lolium multiflorum); settings: for Ryegrass, Italian plant response rating (0 to 100 scale): 0 is no effect, 13 to 15 days
Method in brief: (§1)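 Test compounds, formulated in a non-phytotoxic solvent mixture with surfactant, are applied to the soil surface (loam and sand blend) right after seeding, or sprayed over plants at the 1- to 4-leaf stage grown in peat moss/vermiculite medium. After 13 to 15 days under glasshouse conditions, each species is scored visually from 0 (no effect) to 100 (complete control) against controls.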

[2] = system: bermudagrass (Cynodon dactylon); settings: for Bermudagrass plant response rating (0 to 100 scale): 0 is no effect, 13 to 15 days
Method in brief: as §1

corn (Zea mays) = settings: for Corn plant response rating (0 to 100 scale): 0 is no effect, 13 to 15 days
Method in brief: as §1

[3] = system: downy bromegrass (Bromus tectorum); settings: for Bromegrass, Downy plant response rating (0 to 100 scale): 0 is no effect, 13 to 15 days
Method in brief: as §1

[4] = system: giant foxtail (Setaria faberii); settings: for Foxtail, Giant plant response rating (0 to 100 scale): 0 is no effect, 13 to 15 days
Method in brief: as §1

[5] = system: goosegrass (Eleusine indica); settings: for Goosegrass plant response rating (0 to 100 scale): 0 is no effect, 13 to 15 days
Method in brief: as §1

[6] = system: green foxtail (Setaria viridis); settings: for Foxtail, Green plant response rating (0 to 100 scale): 0 is no effect, 13 to 15 days
Method in brief: as §1

[7] = system: johnsongrass (Sorghum halepense); settings: for Johnsongrass plant response rating (0 to 100 scale): 0 is no effect, 13 to 15 days
Method in brief: as §1

[8] = system: large crabgrass (Digitaria sanguinalis); settings: for Crabgrass, Large plant response rating (0 to 100 scale): 0 is no effect, 13 to 15 days
Method in brief: as §1

[9] = system: morningglory (Ipomoea coccinea); settings: for Morningglory plant response rating (0 to 100 scale): 0 is no effect, 13 to 15 days
Method in brief: as §1

[10] = system: ragweed (common ragweed, Ambrosia elatior); settings: for Ragweed plant response rating (0 to 100 scale): 0 is no effect, 13 to 15 days
Method in brief: as §1

[11] = system: woolly cupgrass (Eriochloa villosa); settings: for Cupgrass, Woolly plant response rating (0 to 100 scale): 0 is no effect, 13 to 15 days
Method in brief: as §1

[12] = system: yellow nutsedge (Cyperus esculentus); settings: for Nutsedge, Yellow plant response rating (0 to 100 scale): 0 is no effect, 13 to 15 days
Method in brief: as §1

[13] = 62 g ai/ha, postemergence, 100 is complete control
[14] = Postemergence, 125 g ai/ha, scale 0 to 100 (0 no effect, 100 complete control)
[15] = Postemergence, 250 g ai/ha, scale 0 to 100 (0 no effect, 100 complete control)
[16] = 31 g ai/ha, postemergence, scale 0 to 100, 0 is no effect, 100 is complete control
[17] = Postemergence, 125 g ai/ha, visual rating after 13 to 15 days, scale 0 (no effect) to 100 (complete control)
[18] = Preemergence, 31 g ai/ha, scale 0 to 100 (0 no effect, 100 complete control)
[19] = Preemergence, 62 g ai/ha, scale 0 to 100 (0 no effect, 100 complete control)
[20] = Preemergence, 125 g ai/ha, scale 0 to 100, 0 no effect, 100 complete control
[21] = Preemergence, 250 g ai/ha, 0 to 100 scale

COCC(C)n1c(-c2ccccc2)ncc(C(=O)C2=C(O)CCCC2=O)c1=O (stereo not shown) [Compound 107]
Ryegrass, Italian plant response rating (0 to 100 scale) [1, 13]: 0
Plant response rating, Ryegrass, Italian [1, 14]: 5
Plant response rating, Ryegrass, Italian [1, 15]: 5
Plant response rating, Bermudagrass [2, 16]: 75
Bermudagrass plant response rating (0 to 100 scale) [2, 13]: 80
Plant response rating, Bermudagrass [2, 14]: 95
Plant response rating, Bermudagrass [2, 15]: 98
Plant response rating, Corn (corn (Zea mays); [16]): 65
Corn plant response rating (0 to 100 scale) (corn (Zea mays); [13]): 65
Plant response rating, Corn (corn (Zea mays); [14]): 75
Plant response rating, Corn (corn (Zea mays); [15]): 85
Plant response rating, Bromegrass, Downy [3, 16]: 0
Bromegrass, Downy plant response rating (0 to 100 scale) [3, 13]: 5
Plant response rating, Bromegrass, Downy [3, 14]: 10
Plant response rating, Bromegrass, Downy [3, 15]: 30
Plant response rating, Foxtail, Giant [4, 16]: 75
Foxtail, Giant plant response rating (0 to 100 scale) [4, 13]: 80
Plant response rating, Foxtail, Giant [4, 14]: 85
Plant response rating, Foxtail, Giant [4, 15]: 95
Plant response rating, Goosegrass [5, 16]: 75
Goosegrass plant response rating (0 to 100 scale) [5, 13]: 75
Plant response rating, Goosegrass [5, 14]: 75
Plant response rating, Goosegrass [5, 15]: 85
Plant response rating, Foxtail, Green [6, 16]: 70
Foxtail, Green plant response rating (0 to 100 scale) [6, 13]: 75
Plant response rating, Foxtail, Green [6, 14]: 90
Plant response rating, Foxtail, Green [6, 15]: 98
Plant response rating, Johnsongrass [7, 16]: 60
Johnsongrass plant response rating (0 to 100 scale) [7, 13]: 70
Plant response rating, Johnsongrass [7, 14]: 70
Plant response rating, Johnsongrass [7, 15]: 90
Plant response rating, Crabgrass, Large [8, 16]: 75
Crabgrass, Large plant response rating (0 to 100 scale) [8, 13]: 85
Plant response rating, Crabgrass, Large [8, 14]: 90
Plant response rating, Crabgrass, Large [8, 15]: 95
Plant response rating, Morningglory [9, 16]: 100
Morningglory plant response rating (0 to 100 scale) [9, 13]: 100
Plant response rating, Morningglory [9, 14]: 100
Plant response rating, Morningglory [9, 15]: 100
Ragweed plant response rating (0 to 100 scale) [10, 13]: 85
Plant response rating, Ragweed [10, 14]: 95
Plant response rating, Ragweed [10, 15]: 98
Plant response rating, Cupgrass, Woolly [11, 16]: 65
Cupgrass, Woolly plant response rating (0 to 100 scale) [11, 13]: 65
Plant response rating, Cupgrass, Woolly [11, 14]: 75
Plant response rating, Cupgrass, Woolly [11, 15]: 80
Plant response rating, Nutsedge, Yellow [12, 16]: 75
Nutsedge, Yellow plant response rating (0 to 100 scale) [12, 13]: 75
Plant response rating, Nutsedge, Yellow [12, 14]: 75
Plant response rating, Nutsedge, Yellow [12, 15]: 85

CCCn1c(-c2cccs2)ncc(C(=O)C2=C(O)CCCC2=O)c1=O [Compound 77]
Plant response rating, Ryegrass, Italian [1, 16]: 0
Ryegrass, Italian plant response rating (0 to 100 scale) [1, 13]: 5
Plant response rating, Ryegrass, Italian [1, 17]: 5
Plant response rating, Ryegrass, Italian [1, 15]: 10
Plant response rating, Ryegrass, Italian [1, 18]: 0
Plant response rating, Ryegrass, Italian [1, 19]: 0
Plant response rating, Ryegrass, Italian [1, 20]: 0
Ryegrass, Italian plant response rating [1, 21]: 0
Plant response rating, Bermudagrass [2, 16]: 90
Bermudagrass plant response rating (0 to 100 scale) [2, 13]: 90
Plant response rating, Bermudagrass [2, 17]: 95
Plant response rating, Bermudagrass [2, 15]: 95
Plant response rating, Bermudagrass [2, 18]: 55
Plant response rating, Bermudagrass [2, 19]: 100
Plant response rating, Bermudagrass [2, 20]: 100
Bermudagrass plant response rating ([2]; Preemergence, 250 g ai/ha, 0 to 100 scale, 0 no effect, 100 complete control): 100
Plant response rating, Corn (corn (Zea mays); [16]): 0
Corn plant response rating (0 to 100 scale) (corn (Zea mays); [13]): 5
Plant response rating, Corn (corn (Zea mays); [17]): 60
Plant response rating, Corn (corn (Zea mays); [15]): 75
Plant response rating, Corn (corn (Zea mays); [18]): 0
Plant response rating, Corn (corn (Zea mays); [19]): 0
Plant response rating, Corn (corn (Zea mays); [20]): 0
Corn plant response rating (corn (Zea mays); [21]): 0
Plant response rating, Bromegrass, Downy [3, 16]: 0
Bromegrass, Downy plant response rating (0 to 100 scale) [3, 13]: 5
Plant response rating, Bromegrass, Downy [3, 17]: 5
Plant response rating, Bromegrass, Downy [3, 15]: 5
Plant response rating, Bromegrass, Downy [3, 18]: 0
Plant response rating, Bromegrass, Downy [3, 19]: 0
Plant response rating, Bromegrass, Downy [3, 20]: 0
Bromegrass, Downy plant response rating [3, 21]: 0
Plant response rating, Foxtail, Giant [4, 16]: 65
Foxtail, Giant plant response rating (0 to 100 scale) [4, 13]: 75
Plant response rating, Foxtail, Giant [4, 17]: 75
Plant response rating, Foxtail, Giant [4, 15]: 80
Plant response rating, Foxtail, Giant [4, 18]: 0
Plant response rating, Foxtail, Giant [4, 19]: 0
Plant response rating, Foxtail, Giant [4, 20]: 5
Foxtail, Giant plant response rating [4, 21]: 45
Plant response rating, Goosegrass [5, 16]: 65
Goosegrass plant response rating (0 to 100 scale) [5, 13]: 75
Plant response rating, Goosegrass [5, 17]: 75
Plant response rating, Goosegrass [5, 15]: 85
Plant response rating, Goosegrass [5, 18]: 55
Plant response rating, Goosegrass [5, 19]: 95
Plant response rating, Goosegrass [5, 20]: 98
Goosegrass plant response rating [5, 21]: 98
Plant response rating, Foxtail, Green [6, 16]: 40
Foxtail, Green plant response rating (0 to 100 scale) [6, 13]: 80
Plant response rating, Foxtail, Green [6, 17]: 80
Plant response rating, Foxtail, Green [6, 15]: 80
Plant response rating, Foxtail, Green [6, 18]: 0
Plant response rating, Foxtail, Green [6, 19]: 0
Plant response rating, Foxtail, Green [6, 20]: 0
Foxtail, Green plant response rating [6, 21]: 15
Plant response rating, Johnsongrass [7, 16]: 0
Johnsongrass plant response rating (0 to 100 scale) [7, 13]: 0
Plant response rating, Johnsongrass [7, 17]: 10
Plant response rating, Johnsongrass [7, 15]: 10
Plant response rating, Johnsongrass [7, 18]: 0
Plant response rating, Johnsongrass [7, 19]: 0
Plant response rating, Johnsongrass [7, 20]: 0
Johnsongrass plant response rating [7, 21]: 0
Plant response rating, Crabgrass, Large [8, 16]: 55
Crabgrass, Large plant response rating (0 to 100 scale) [8, 13]: 60
Plant response rating, Crabgrass, Large [8, 17]: 75
Plant response rating, Crabgrass, Large [8, 15]: 85
Plant response rating, Crabgrass, Large [8, 18]: 70
Plant response rating, Crabgrass, Large [8, 19]: 98
Plant response rating, Crabgrass, Large [8, 20]: 98
Crabgrass, Large plant response rating [8, 21]: 100
Plant response rating, Morningglory [9, 16]: 75
Morningglory plant response rating (0 to 100 scale) [9, 13]: 75
Plant response rating, Morningglory [9, 17]: 80
Plant response rating, Morningglory [9, 15]: 90
Plant response rating, Morningglory [9, 18]: 0
Plant response rating, Morningglory [9, 19]: 65
Plant response rating, Morningglory [9, 20]: 75
Morningglory plant response rating [9, 21]: 90
Plant response rating, Ragweed [10, 16]: 75
Ragweed plant response rating (0 to 100 scale) [10, 13]: 75
Plant response rating, Ragweed [10, 17]: 80
Plant response rating, Ragweed [10, 15]: 85
Plant response rating, Ragweed [10, 18]: 50
Plant response rating, Ragweed [10, 19]: 75
Plant response rating, Ragweed [10, 20]: 90
Ragweed plant response rating [10, 21]: 95
Plant response rating, Cupgrass, Woolly [11, 16]: 20
Cupgrass, Woolly plant response rating (0 to 100 scale) [11, 13]: 20
Plant response rating, Cupgrass, Woolly [11, 17]: 35
Plant response rating, Cupgrass, Woolly [11, 15]: 40
Plant response rating, Cupgrass, Woolly [11, 18]: 0
Plant response rating, Cupgrass, Woolly [11, 19]: 0
Plant response rating, Cupgrass, Woolly [11, 20]: 0
Cupgrass, Woolly plant response rating [11, 21]: 0
Plant response rating, Nutsedge, Yellow [12, 16]: 45
Nutsedge, Yellow plant response rating (0 to 100 scale) [12, 13]: 60
Plant response rating, Nutsedge, Yellow [12, 17]: 70
Plant response rating, Nutsedge, Yellow [12, 15]: 80
Plant response rating, Nutsedge, Yellow [12, 18]: 75
Plant response rating, Nutsedge, Yellow [12, 19]: 80
Plant response rating, Nutsedge, Yellow [12, 20]: 90
Nutsedge, Yellow plant response rating [12, 21]: 90
